{"source": "patent US20200188477A1", "about": "“A MEDICAMENT FOR THE TREATMENT OF DISEASES BY BIOFILM FORMING MICROORGANISMS” (priority 2017, published 2020)", "system": "M. smegmatis over-expressing M. tuberculosis PpiB protein", "assay": "Biofilm formation assay (crystal violet)", "type": "cell-based, Mycobacterium smegmatis", "conditions": "Ms_PpiB (Tet+), 7 days, absorbance 550 nm", "data": [{"compound": "C[C@H]1O[C@H](O[C@H]2[C@H](O)[C@@H](O)[C@@H](O[C@H]3[C@H](O)[C@@H](O)C(O)O[C@@H]3CO)O[C@@H]2CO)[C@H](O)[C@@H](O)[C@@H]1N[C@H]1C=C(CO)[C@@H](O)[C@H](O)[C@H]1O", "note": "(stereo partly shown) [acarbose]", "values": [{"measurement": "concentration at which treatment significantly reduced biofilm formation", "result": "above 500 μg/ml"}]}]}
